≈ marks a conversion by molar mass, not a printed value.
Key:
[1] = test system: mouse lung cancer (lewis lung carcinoma); assay: anti-cancer action against grafted mouse lung cancer, tumor volume; format: in vivo; details: mouse pulmonary cancer
Description: The anti-cancer action of the compound of the present invention against mouse lung cancer (lewis lung carcinoma) and mouse breast cancer (Ehrlich B) was examined. 1 x 10⁶ mouse lung cancer cells or mouse breast cancer cells were grafted into a subcutaneous portion of the groin of an eight week-old male BDF₁ or ICR mouse, and the compound of the present invention was intraperitoneally administered to the mouse in various concentrations every day from two days after the graft once a day for 9 days. On the second day after completion of the administration, the minor axis and the major axis of the tumor were measured, and the volume of the tumor was determined by using the following equation: (minor axis)² x […]/2 [formula] . Then, the percentage inhibition of proliferation of each tumor with respect to the compound of the present invention was determined from the ratio of the volume of the tumor on the groups of administration of the compound of the present invention relative to that on the control group.

[2] = test system: mouse malignant melanoma (B16 melanotic melanoma); assay: in-vivo test by intravenous administration against mouse malignant melanoma, tumor volume; set-up: species or system C57BL/6 mouse
Description: The anti-cancer action of the compound of the present invention against mouse malignant melanoma (B16 melanotic melanoma) was examined. 5 x 10⁵ mouse malignant melanoma cells were inoculated into a subcutaneous portion of the right body side of a 6 week-old male C57BL/6 mouse, and the compound of the present invention was intravenously administered to the mouse in various concentrations every day from the next day or from 7 days after the inoculation once a day for 5 days. On the 11 days after the inoculation, the minor axis and the major axis of the tumor were measured, and the volume of the tumor was determined by using the following equation: (minor axis)² x […]/2 [formula] . Then, the percentage inhibition of proliferation of each tumor with respect to the compound of the present invention was determined from the ratio of the volume of the tumor on the groups of administration of the compound of the present invention relative to that on the control group.

[3] = test system: mosquito culices (a sensitive species); assay: insecticidal action, mortality rate of mosquito larvae; format: in vivo
Experimental: The insecticidal action of the compound of the present invention was examined by the following method. • (1) An imago of two-spotted spider mite acarids (a Kelthane-resistant species) was used as a test vermin, and the mortality rate thereof was assayed according to an ordinary method (described on page 327 of "Noyaku Seibutsu Kenteiho" edited by Toyoji Hosotsuji). Specifically, a solution of the compound of the present invention in acetone (0.1 %) was added to 0.5 ml of an aqueous sucrose solution (1 %) to have a predetermined concentration. Ten two-spotted spider mite acarids were released in a vessel (200-ml beaker), and the vessel was covered with a paraffin film. The agent solution prepared above was put on the paraffin film, and another praffin film was put thereon. The beaker was allowed to stand in a thermostatic chamber (20 ± 1°C) for a predetermined period of time, and the life and death of the test vermin was investigated. • (2) A larva of mosquito culices (a sensitive species) was used as a test vermin, and the mortality rate thereof was assayed according to an ordinary method (described on page 109 of "Noyaku Jikkenho I, Sacchuzaihen" published by Soft Science, Inc.). Specifically, 10 ml of well water was placed in a vessel (15-ml Schale), and 5 larvae of mosquito culices (the third stage) were released in the vessel. A solution of the compound of the present invention in acetone (0.1 %) was added thereto so as to have a predetermined concentration. The vessel was allowed to stand in a thermostatic chamber (26 ± 1°C) for a predetermined period of time, and the life and death of the test vermin was investigated.

Mucor javanicus = assay: antifungal spectrum (minimum inhibitory concentration on agar); format: cell-based; details: Czapek Dox solution agar
Description: (§1) The antifungal spectrum of the compound of the present invention was examined.

Penicillium chrysogenum = assay: as above; format: cell-based; details: Czapek Dox solution agar
Description: as §1

Fusarium roseum f. sp. = assay: as above; format: cell-based; details: Fusarium sambucinum; Czapek Dox solution agar
Description: as §1

Aspergillus niger = assay: as above; format: cell-based; details: Czapek Dox solution agar
Description: as §1

Aspergillus oryzae = assay: as above; format: cell-based; details: Czapek Dox solution agar
Description: as §1

Saccharomyces cerevisiae = assay: as above; format: cell-based; details: Czapek Dox solution agar
Description: as §1

[4] = test system: mouse colonic cancer cells (Colon 26); assay: growth-inhibitory effect on mouse colonic cancer cells, dye exclusion method; format: cell-based
Experimental: The growth-inhibitory effects of the compound of the present invention on mouse colonic cancer cells (Colon 26) and human colonic cancer cells (SWlll6) were examined. A 96-well plate was inoculated with mouse colonic cancer cells at a ratio of 1.5 x 10³ cells per well, while another 96-well plate was inoculated with human colonic cancer cells at a ratio of 3.0 x 10³ per well. These cells were incubated in an incubator at 37°C under 5 % CO₂ for 24 hours. Then the compound of the present invention was added thereto at various concentrations. Cells in each well were counted by the dye exclusion method 65 hours and 96 hours after the addition to thereby evaluate the growth-inhibitory effect of the test compound on the mouse colonic cancer cells and that on the human colonic cancer cells.

[5] = test system: cancer of the mouse colon (colon 26); assay: anti-cancer action against grafted mouse colon cancer, prolongation of life; format: in vivo, BALB/c mouse
Description: The anti-cancer action of the compound of the present invention against the cancer of the mouse colon (colon 26) was examined. A cancer debris of mouse colon having an area of 2 mm³ was grafted into a subcutaneous portion of the left body side of a 6 week-old male BALB/c mouse, and the compound of the present invention was intraperitoneally administered to the mouse in various concentrations every day from the next day of the graft once a day for 9 days. The general conditions of the mouse were observed every day after the initiation of the administration. The percentage prolongation of life (T/C) of the mouse with respect to the compound of the present invention was determined from the ratio of the average survival time on the groups of administration of the compound of the present invention relative to that on the control group.

[6] = 0.063 mg/kg intraperitoneally once a day for 9 days
[7] = 0.125 mg/kg intraperitoneally once a day for 9 days
[8] = 0.250 mg/kg intraperitoneally once a day for 9 days
[9] = 0.500 mg/kg intraperitoneally once a day for 9 days

With `CCC1C=CC=CCC(C)C(O)C(C)(O)C(=O)C(C)C(O)C(C)C(=O)C(C)C(O)C(C)C=CC(=O)OC2C(C)C(CC1)OC1(OC(CC(C)O)C(C)CC1=O)C2CC` (stereo not shown) [NK86-0279] the “Growth-inhibitory ratio (tumor volume)” value [1, 6] was 46.3%, the “Growth-inhibitory ratio (tumor volume)” value [1, 7] was 57.1% and the “Growth-inhibitory ratio (tumor volume)” value [1, 8] was 8.9%. The “Growth-inhibitory ratio (tumor volume)” value [1, 9] was 59.6%, the “Growth-inhibitory ratio (tumor volume)” value ([2]; 0.05 mg/kg intravenously once a day for 5 days, administered from 7 days after the inoculation) was 57.4% and the “Growth-inhibitory ratio (tumor volume)” value ([2]; 0.05 mg/kg intravenously once a day for 5 days, administered from the next day of the inoculation) was 57.0%. For the same molecule, the “Growth-inhibitory ratio (tumor volume)” value ([2]; 0.10 mg/kg intravenously once a day for 5 days, administered from 7 days after the inoculation) was 69.1%, the “Growth-inhibitory ratio (tumor volume)” value ([2]; 0.10 mg/kg intravenously once a day for 5 days, administered from the next day of the inoculation) was 62.9% and the “Growth-inhibitory ratio (tumor volume)” value ([2]; 0.20 mg/kg intravenously once a day for 5 days, administered from 7 days after the inoculation) was 76.6%. For the same molecule, the “Growth-inhibitory ratio (tumor volume)” value ([2]; 0.20 mg/kg intravenously once a day for 5 days, administered from the next day of the inoculation) was 56.9%, the “Growth-inhibitory ratio (tumor volume)” value ([2]; 0.40 mg/kg intravenously once a day for 5 days, administered from 7 days after the inoculation) was 81.9% and the “Growth-inhibitory ratio (tumor volume)” value ([2]; 0.40 mg/kg intravenously once a day for 5 days, administered from the next day of the inoculation) was 50.5%. It also gave a mortality at 1 ppm ([3]; 48 h, after 2 days) of 0%, a mortality at 10 ppm ([3]; 48 h, after 2 days) of 100% and a mortality at 1 ppm ([3]; 144 h, 6 days) of 0%. The mortality at 10 ppm ([3]; 144 h, 6 days) was 100%, the mortality at 1 ppm ([3]; 216 h, 9 days) was 0% and the mortality at 10 ppm ([3]; 216 h, 9 days) was 100%. The MIC (Mucor javanicus) was > 100 µg/mL, the MIC (Penicillium chrysogenum) was 1.56 µg/mL (≈ 1.9 µM) and the MIC (Fusarium roseum f. sp.) was 6.25 µg/mL (≈ 7.63 µM). For the same molecule, the MIC (Aspergillus niger) was 6.25 µg/mL (≈ 7.63 µM), the MIC (Aspergillus oryzae) was 3.13 µg/mL (≈ 3.82 µM) and the MIC (Saccharomyces cerevisiae) was > 100 µg/mL. For the same molecule, the inhibition at 0.0061 µg/mL ([4]; Mus musculus, Colon 26, 0.0061 µg/ml, read-out: Growth-inhibitory ratio) was 84.6%, the inhibition at 0.024 µg/mL ([4]; Mus musculus, Colon 26, 0.024 µg/ml, read-out: Growth-inhibitory ratio) was 87.5% and the inhibition at 0.098 µg/mL ([4]; Mus musculus, Colon 26, 0.098 µg/ml, read-out: Growth-inhibitory ratio) was 86.1%. For the same molecule, the inhibition at 0.39 µg/mL ([4]; Mus musculus, Colon 26, 0.39 µg/ml, read-out: Growth-inhibitory ratio) was 87.6%, the inhibition at 1.56 µg/mL ([4]; Mus musculus, Colon 26, 1.56 µg/ml, read-out: Growth-inhibitory ratio) was 94.2% and the inhibition at 6.25 µg/mL ([4]; Mus musculus, Colon 26, 6.25 µg/ml, read-out: Growth-inhibitory ratio) was 105%. The inhibition at 25 µg/mL ([4]; Mus musculus, Colon 26, 25 µg/ml, read-out: Growth-inhibitory ratio) was 108%, the inhibition at 100 µg/mL ([4]; Mus musculus, Colon 26, 100 µg/ml, read-out: Growth-inhibitory ratio) was 104% and the IC50 ([4]; mouse colonic cancer cells (Colon 26), read-out: IC₅₀) was < 0.0061 µg/mL. The “T/C (percentage prolongation of life)” value [5, 6] was 136%, the “T/C (percentage prolongation of life)” value [5, 7] was 130% and the “T/C (percentage prolongation of life)” value [5, 8] was 153%. The “T/C (percentage prolongation of life)” value [5, 9] was 143%.

— patent publication EP0322748B1, “Antibiotic NK86-0279, process for production of the same and application of the same” (NIPPON KAYAKU KABUSHIKI KAISHA, priority 1987, dated 1989)
